Experimental data as given in paper PMC10981997, “PEDF peptide plus hyaluronic acid stimulates cartilage regeneration in osteoarthritis via STAT3-mediated chondrogenesis” (Bone & Joint Research, 2024).

Assays:
[1] = system: articular cartilage (AC); experiment: In vivo BrdU labelling and immunostaining of chondrogenic markers in damaged AC; set-up: species or system rat; conditions: inhibitor 1 mM in 25 µl 5% HA intra-articular 60 min before 29-mer/HA at days 8 and 12
Method: Rats were anaesthetized by an intraperitoneal injection of xylazine (10 mg/kg) and then the right knees were injected with MIA (1 mg dissolved in 25 µl of sterile saline), using a 27-gauge needle through the patellar ligament of the knees.[18],[19] The left knee joints (control) were injected with saline. To prepare the 29-mer/HA, the 29-mer was dissolved in dimethylsulfoxide (DMSO) to make a 10 mM stock solution. Equal volumes of DMSO and 29-mer (0.5 µl) were dissolved in HA. At days 8 and 12 after MIA injection, the right knees (n = 6 per group) were randomly injected by: 1) 29-mer/25 µl of 5% HA (final concentration of 29-mer at 0.2 mM); 2) DMSO vehicle/5% HA; 3) control peptide/5% HA; 4) 5% HA alone; and 5) 29-mer/25 µl of phosphate-buffered saline (PBS; final concentration of 29-mer at 0.2 mM). […]
BrdU was reconstituted in DMSO as stock (80 mM). […] Deparaffinized sections were treated with 1N HCl at RT for 1 h, and DNA synthesis was assessed by anti-BrdU antibody. […] Images were captured using a Zeiss epifluorescence microscope with a CCD camera (Zeiss, Germany), and blinded quantification was performed in triplicate by manually counting within each section. […]

[2] = system: BM-MSCs; experiment: BrdU incorporation (proliferation) of BM-MSCs in expansion medium; format: cell-based, rat; conditions: pretreatment before 29-mer 10 μM, p < 0.001 vs 29-mer
Source text: Sprague-Dawley rats were anaesthetized and their femora were aseptically harvested, washed in a mixture of PBS and 1% penicillin/streptomycin for five minutes, dissected of all soft-tissue, transected at their epiphysis, and their marrow cavity rinsed repeatedly with a mixture of heparin (AGGLUTEX INJ 5,000 U/ml; working conc. 100 U/ml) and Dulbecco’s Modified Eagle Medium (DMEM; Gibco, Thermo Fisher Scientific). The harvested cells were collected, dispersed by pipetting, and centrifuged at 1,000× g for five minutes at RT. Cell pellets were resuspended with DMEM and then the cell suspension was transferred to a 15 ml centrifuge tube containing 5 ml of Percoll (1.073 g/ml; MilliporeSigma). After centrifugation at 1,500× g for 30 minutes, the mononuclear cells in the middle layer were obtained, washed three times with PBS, and suspended in expansion medium (low-glucose DMEM with 10% heat-inactivated FBS, 1% penicillin/streptomycin). […] BrdU immunostaining of BM-MSCs was performed as in Ho et al’s[14] study.
BM-MSCs were expanded for seven days in culture and then exposed to the 29-mer (10 μM) for 24 hours. Cell proliferation was detected by BrdU pulse-labelling for four hours and analyzed by BrdU immunostaining (red colour; Figure 1a).

C[C@H]1COC2=C1C(=O)C(=O)c1c2ccc2c1CCCC2(C)C [CPT, cryptotanshinone]
effect of inhibitor on 29-mer/HA-induced BrdU-labelled chondrocytes [1]: blocked | effect of inhibitor pretreatment on the 29-mer-induced BrdU+ levels [2]: significantly suppressed

CN(C)C(=O)Nc1cccc(-c2ccc(N(C)C)cc2)c1 [atglistatin, Atglistatin]
effect of inhibitor on 29-mer/HA-induced BrdU-labelled chondrocytes [1]: blocked | effect of inhibitor pretreatment on the 29-mer-induced BrdU+ levels [2]: significantly suppressed
